Measurements published in PubChem BioAssay AID651885 (Broad Institute, 2012).

Columns and labels:
[1] = tested on: BESM host cells (bovine embryo skeletal muscle), cytotoxicity; experiment: T. cruzi intracellular amastigote growth inhibition, dose response, imaging, CA-I/72 strain, bovine embryo skeletal muscle, dry powder (AID 651885); settings: T. cruzi CA-I/72 amastigotes in BESM cells, imaging, 72 h; measured here: host BESM cell toxicity
[2] = tested on: T. cruzi CA-I/72 amastigotes in BESM cells, imaging, 72 h; experiment: as above; settings: for IC90: measured here: parasite IC90, test 4; for IC99: measured here: parasite IC99, test 4

| SMILES | IC50 [1] | other results |
| --- | --- | --- |
| C[C@@H]1CN([C@@H](C)CO)C(=O)c2cccc(NC(=O)c3ccncc3)c2O[C@@H]1CN(C)Cc1ccc(Oc2ccccc2)cc1 | > 20 µM | – |
| C[C@H](CO)N1C[C@H](C)[C@@H](CN(C)Cc2ccc(Oc3ccccc3)cc2)Oc2c(NC(=O)c3ccncc3)cccc2C1=O | > 20 µM | – |
| CC(C)N(C)C(=O)c1cccc(NC(=O)c2ccncc2)c1OCCCN(C)Cc1ccc(Cl)cc1 | > 20 µM | – |
| C[C@H]1CN([C@@H](C)CO)C(=O)c2cccc(NC(=O)c3ccncc3)c2O[C@@H]1CN(C)Cc1ccc(Cl)c(Cl)c1 | > 20 µM | – |
| C[C@@H]1CN([C@@H](C)CO)C(=O)c2cc(-c3cncnc3)cnc2O[C@H]1CN(C)Cc1ccc(Oc2ccccc2)cc1 | > 20 µM | – |
| C[C@@H]1CN([C@@H](C)CO)C(=O)c2cccc(NC(=O)c3cnccn3)c2O[C@H]1CN(C)Cc1ccc(Oc2ccccc2)cc1 | > 20 µM | – |
| CNC[C@H]1Oc2c(NC(=O)c3ccccc3)cccc2C(=O)N(C(C)C)C[C@@H]1C | > 20 µM | – |
| COc1ccc(CN(C)C[C@@H]2Oc3c(NC(=O)c4ccncc4)cccc3C(=O)N([C@@H](C)CO)C[C@H]2C)cc1 | > 20 µM | IC90 [2]: 1.58 µM; IC99 [2]: 15.9 µM |
| Cc1cc(C(=O)Nc2cccc3c2O[C@@H](CN(C)Cc2ccc(Oc4ccccc4)cc2)[C@H](C)CN([C@@H](C)CO)C3=O)n(C)n1 | > 20 µM | – |
| C[C@@H]1CN([C@H](C)CO)C(=O)c2cccc(NC(=O)c3ccncc3)c2O[C@H]1CN(C)Cc1ccc(Oc2ccccc2)cc1 | > 20 µM | IC90 [2]: 0.45 µM; IC99 [2]: 4.95 µM |
| CC(C)N1C[C@H](C)[C@@H](CN(C)C(=O)OC(C)(C)C)Oc2c(NC(=O)c3ccccc3)cccc2C1=O | > 20 µM | – |
| C[C@@H]1CN([C@@H](C)CO)C(=O)c2cccc(NC(=O)c3ccncc3)c2O[C@H]1CN(C)CC1CCCCC1 | > 20 µM | IC90 [2]: 6.03 µM; IC99 [2]: 63.4 µM |
| C[C@@H]1CN([C@H](C)CO)C(=O)c2cccc(NC(=O)c3ccncc3)c2O[C@@H]1CN(C)Cc1ccc(Oc2ccccc2)cc1 | > 20 µM | IC90 [2]: 30.7 µM; IC99 [2]: 238 µM |
| CC(C)N1C[C@H](C)[C@@H](CN(C)Cc2ccc(Cl)cc2)Oc2c(NC(=O)c3ccncc3)cccc2C1=O | > 20 µM | – |
| C[C@H](CO)N1C[C@H](C)[C@H](CN(C)Cc2ccc(Oc3ccccc3)cc2)Oc2c(NC(=O)c3ccncc3)cccc2C1=O | > 20 µM | – |
| CC(C)N1C[C@H](C)[C@@H](CN(C)Cc2ccc(Oc3ccccc3)cc2)Oc2c(NC(=O)c3ccncc3)cccc2C1=O | > 20 µM | – |
| C[C@H]1CN([C@@H](C)CO)C(=O)c2cccc(NC(=O)c3ccncc3)c2O[C@@H]1CN(C)Cc1ccc(Oc2ccccc2)cc1 | > 20 µM | – |
| C[C@H]1CN([C@@H](C)CO)C(=O)c2cccc(NC(=O)c3ccncc3)c2O[C@@H]1CN(C)Cc1ccc(C(=O)Nc2ccccc2N)cc1 | > 20 µM | – |
| CC(C)N1C[C@H](C)[C@@H](CN(C)C(=O)OC(C)(C)C)Oc2c(C#N)cccc2C1=O | > 20 µM | – |
| C[C@@H]1CN([C@@H](C)CO)C(=O)c2cccc(NC(=O)c3ccncc3)c2O[C@H]1CN(C)C | > 20 µM | – |
| C[C@@H]1CN([C@@H](C)CO)C(=O)c2cccc(NC(=O)c3ccncc3)c2O[C@H]1CN(C)Cc1ccc(Cl)cc1 | > 20 µM | – |
| C[C@@H]1CN([C@@H](C)CO)C(=O)c2cc(-c3cccnc3)cnc2O[C@H]1CN(C)Cc1ccc(Oc2ccccc2)cc1 | > 20 µM | – |
| CC(C)N1C[C@H](C)[C@@H](CN(C)C(=O)OC(C)(C)C)Oc2c(C(=O)Nc3ccncc3)cccc2C1=O | > 20 µM | – |
| C[C@@H]1CN([C@@H](C)CO)C(=O)c2cc(Br)cnc2O[C@H]1CN(C)Cc1ccc2c(c1)OCO2 | > 20 µM | – |
| C[C@@H]1CN([C@@H](C)CO)C(=O)c2cccc(NC(=O)c3ccncc3)c2O[C@H]1CN(C)Cc1ccc(C(=O)O)cc1 | > 20 µM | – |
| COc1ccc(CN(C)C[C@H]2Oc3c(NC(=O)c4ccncc4)cccc3C(=O)N([C@@H](C)CO)C[C@@H]2C)cc1 | 15.3 µM | – |

| SMILES | IC50 [1] | other results |
| --- | --- | --- |
| C[C@H]1CN([C@@H](C)CO)C(=O)c2cccc(NC(=O)c3ccncc3)c2O[C@@H]1CN(C)Cc1ccc(C(=O)O)cc1 | > 20 µM | – |
| C[C@H]1CN([C@@H](C)CO)C(=O)c2cccc(NC(=O)c3ccncc3)c2O[C@H]1CN(C)Cc1ccc(Oc2ccccc2)cc1 | > 20 µM | – |
| C[C@@H]1CN([C@H](C)CO)C(=O)c2cccc(NC(=O)c3ccncc3)c2O[C@H]1CN(C)Cc1ccc(C(F)(F)F)cc1 | > 20 µM | IC90 [2]: 0.472 µM; IC99 [2]: 4.75 µM |
| C[C@@H]1CN([C@@H](C)CO)C(=O)c2cccc(NC(=O)c3ccncc3)c2O[C@H]1CN(C)Cc1ccc2c(c1)OCO2 | > 20 µM | IC90 [2]: 0.921 µM; IC99 [2]: 7.92 µM |
| C[C@@H]1CN([C@@H](C)CO)C(=O)c2cccc(NC(=O)c3ccncc3)c2O[C@H]1CN(C)Cc1ccc(-c2ccccc2)cc1 | > 20 µM | – |
| C[C@@H]1CN([C@H](C)CO)C(=O)c2cccc(NC(=O)c3ccncc3)c2O[C@H]1CN(C)CC1CCCCC1 | > 20 µM | IC90 [2]: 28.5 µM; IC99 [2]: 158 µM |
| C[C@@H]1CN([C@@H](C)CO)C(=O)c2cccc(NC(=O)c3ccncc3)c2O[C@H]1CN(C)Cc1ccc(Oc2ccccc2)cc1 | > 20 µM | IC50 [2]: 0.011 µM; IC90 [2]: 0.108 µM; IC99 [2]: 1.19 µM |
| CC(C)N1C[C@H](C)[C@@H](CN(C)C(=O)OC(C)(C)C)Oc2c(C(=O)O)cccc2C1=O | > 20 µM | – |
| C[C@@H]1CN([C@H](C)CO)C(=O)c2cccc(NC(=O)c3ccncc3)c2O[C@H]1CN(C)Cc1ccc2c(c1)OCO2 | > 20 µM | – |
| C[C@@H]1CN([C@@H](C)CO)C(=O)c2cc(-c3ccncc3)cnc2O[C@H]1CN(C)Cc1ccc(Oc2ccccc2)cc1 | 5 µM | – |
| CC(C)N1C[C@H](C)[C@@H](CN(C)Cc2ccc(Oc3ccccc3)cc2)Oc2c(NC(=O)c3ccccc3)cccc2C1=O | 16.1 µM | – |
| C[C@@H]1CN([C@@H](C)CO)C(=O)c2cccc(NC(=O)c3ccncc3)c2O[C@H]1CN(C)Cc1ccccc1Cl | > 20 µM | – |
| CCCn1ncc(CN2CCCC(C(=O)c3cccc(OC(C)C)c3)C2)c1C (stereo not drawn) | > 20 µM | – |
| C[C@H]1CN([C@@H](C)CO)C(=O)c2cccc(NC(=O)c3ccncc3)c2O[C@@H]1CN(C)Cc1ccccc1 | > 20 µM | – |
| CC(C)N1C[C@H](C)[C@@H](CN(C)C(=O)OC(C)(C)C)Oc2c(NC(=O)c3cccnc3)cccc2C1=O | > 20 µM | – |
| CC(C)N1C[C@H](C)[C@@H](CN(C)C(=O)OC(C)(C)C)Oc2c(NC(=O)c3ccncc3)cccc2C1=O | > 20 µM | – |
| C[C@H]1CN([C@@H](C)CO)C(=O)c2cccc(NC(=O)c3ccncc3)c2O[C@@H]1CN(C)Cc1ccncc1 | > 20 µM | – |
| C[C@@H]1CN([C@H](C)CO)C(=O)c2cccc(NC(=O)c3ccncc3)c2O[C@H]1CN(C)Cc1ccccc1 | > 20 µM | – |
| COc1ccc(CCN(C)C(=O)C2CCCN(Cc3ccc(OC)c(OC)c3)C2)cc1OC (stereo not drawn) | > 20 µM | – |
| CC(C)N1C[C@H](C)[C@@H](CN(C)Cc2cccc(Cl)c2)Oc2c(NC(=O)c3ccncc3)cccc2C1=O | 19.1 µM | – |
| C[C@H]1CN([C@@H](C)CO)C(=O)c2cccc(NC(=O)c3ccncc3)c2O[C@@H]1CN(C)Cc1ccc(C(F)(F)F)cc1 | > 20 µM | – |
| CC(C)N1C[C@H](C)[C@@H](CN(C)Cc2ccccc2Cl)Oc2c(NC(=O)c3ccncc3)cccc2C1=O | > 20 µM | – |
| CNC[C@@H]1Oc2c(NC(=O)c3ccncc3)cccc2C(=O)N(C(C)C)C[C@H]1C | > 20 µM | – |
| CC(C)N1C[C@H](C)[C@@H](CN(C)Cc2ccccc2)Oc2c(NC(=O)c3ccncc3)cccc2C1=O | > 20 µM | – |
| C[C@@H]1CN([C@@H](C)CO)C(=O)c2cccc(NC(=O)c3ccncc3)c2O[C@H]1CN(C)Cc1cccc(Cl)c1 | > 20 µM | – |
